Experimental data taken from patent US20140323500A1, “NADPH OXIDASE 4 INHIBITORS AND USE THEREOF” (GENKYOTEX SA, priority 2011, published 2014).

Columns and labels:
human Nox4 = molecular target: T1, human Nox4 (Homo sapiens, UniProt Q9NPH5); test: ROS production by membranes expressing human Nox4, cell-free Amplex Red assay; format: biochemical; details: cell-free membranes, Amplex Red; Cheng-Prusoff; average of at least three experiments in triplicate; read-out: Ki hNox4
T1 construct: expressed in transfected cells; host or cells: T-REx-293 (hNOX4 T-REx-293), tetracycline-induced; membrane fraction
T1 sequence (Q9NPH5 1-578): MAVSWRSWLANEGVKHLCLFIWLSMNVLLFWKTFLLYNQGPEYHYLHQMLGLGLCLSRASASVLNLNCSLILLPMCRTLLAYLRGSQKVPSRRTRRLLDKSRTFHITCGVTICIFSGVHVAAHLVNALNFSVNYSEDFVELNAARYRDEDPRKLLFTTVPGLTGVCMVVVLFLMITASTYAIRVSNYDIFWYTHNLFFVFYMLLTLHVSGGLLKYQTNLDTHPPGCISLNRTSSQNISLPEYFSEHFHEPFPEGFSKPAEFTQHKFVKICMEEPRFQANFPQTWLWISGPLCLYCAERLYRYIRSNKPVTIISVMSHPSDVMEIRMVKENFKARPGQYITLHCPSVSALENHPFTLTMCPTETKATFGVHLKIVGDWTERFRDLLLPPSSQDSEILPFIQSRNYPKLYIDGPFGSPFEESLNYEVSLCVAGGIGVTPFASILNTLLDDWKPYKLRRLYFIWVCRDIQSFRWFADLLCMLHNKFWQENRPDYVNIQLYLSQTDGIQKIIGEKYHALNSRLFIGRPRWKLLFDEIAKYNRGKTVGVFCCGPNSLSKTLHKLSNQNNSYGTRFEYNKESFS
T1 sequence (P13498 2-195 partner limits assumed): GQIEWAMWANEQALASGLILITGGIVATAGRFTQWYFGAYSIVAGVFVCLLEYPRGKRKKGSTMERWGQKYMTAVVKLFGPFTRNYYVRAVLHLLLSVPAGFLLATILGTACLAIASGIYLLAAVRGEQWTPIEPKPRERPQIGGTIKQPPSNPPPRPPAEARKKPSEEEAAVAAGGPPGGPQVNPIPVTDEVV
Text: (§1) The Nox4 activity of Nox4 inhibitors according to the invention may be tested for their activity in the inhibition or reduction of formation of reactive oxygen species (ROS) from oxygen in cell free assays. In order to fully characterise Nox4 inhibitors, Nox subunit-specific cell-free, membrane-based systems have been developed and specific recombinant proteins have been added to membranes heterologously over-expressing their specific iso form. Nox enzymes produce superoxide (O2.−) as primary product, however due to the high instability and reactivity of this molecule which dismutates naturally into hydrogen peroxide (H2O2), therefore, read-out techniques involving probes that do measure H2O2 were used (e.g. using Amplex Red as a probe in order to facilitate consistent and accurate measurements). The activity of the compounds is tested in the following cell free assay using the techniques described here below:
Transfected T-REx™-CHO cells (R718-07) purchased from Invitrogen and T-REx™-293 cell line expressing hNOX4 (hNOX4 T-REx™-293) (Serrander et al., 2007, Biochem. J., 406, 105-114) were cultured in […]. Both media were supplemented with 10% FBS, 2 mM glutamine, penicillin (100 U/ml) and streptomycin (100 μg/ml). Selection pressure was maintained by continuous inclusion of blasticidin (5 μg/ml), and/or G418 (0.25 mg/ml), and/or Hygromycin (0.25 mg/ml) and/or zeocin (0.025 mg/ml).
(§2) Human Nox1, Nox2, Nox4, and Nox5 expression were induced with Tetracycline (1 μg/ml) during 24 h prior to the membrane preparation Membranes from transfected cells overexpressing Nox1, Nox2, Nox4 or Nox5 were prepared as previously described in Palicz et al., 2001, J. Biol. Chem., 76, 3090-3097. After resuspension in sonication buffer (11% sucrose, 120 mM NaCl, 1 mM EGTA in PBS, pH 7.4 for Nox4- or NOX5-expressing cells) or in relax buffer (10 mM Pipes, 3 mM NaCl, 3.5 mM MgCl2, 0.1M KCl, pH 7.4), cells were broken by sonication and centrifuged (200 g, 10 min). The supernatant was layered onto a 17/40% (w/v) discontinuous sucrose gradient and centrifuged (150,000×g for 60 min). Membrane fractions were collected from the 17/40% interface and were stored at −80° C. Protein concentration was determined with the Bradford reagent.
(§3) Reactive Oxygen Species (ROS) production by membranes expressing either human Nox1, or human Nox2 or human Nox4 or human Nox5 or by xanthine/xanthine oxidase were measured using the Amplex Red (AR) method following a slightly modified version of the manufacturer's instruction manual (Invitrogen). Briefly, membranes or xanthine were incubated in PBS with Amplex Red, Horse Radish Peroxidase (HRP) and appropriated co-factors. ROS production was induced by addition of NADPH to NOX-expressing membrane or by addition of xanthine to xanthine oxidase. Non-specific signal was measured in the absence of membranes or in the absence of xanthine.
Antagonist activity of compounds was measured in the presence of increasing concentrations ranging from 1 nM to 100 μM. After an incubation of 20 min in a plate shaker and incubator (Titramax 1000, VWR) at 37° C. with weak agitation (300 rpm), ROS levels were measured for 10 min in a BMG Fluostar microplate reader with excitation and emission wavelengths of 544 nm and 590 nm respectively.
Data were analysed using Prism (GraphPad Software Inc., San Diego, Calif.). Ki values were calculated using the Cheng-Prusoff equation and represent the average of at least three individual experiments performed in triplicate (Table 1). Nox4 inhibition was compared to that measured for Simvastatin (Enzo Life Sciences, CAS Number 79902-63-9) using the method described in Example 1. Reactive Oxygen Species (ROS) production by membranes expressing human Nox4 was measured using the Amplex Red (AR).

human Nox2 = molecular target: T2, human Nox2 (Homo sapiens, UniProt P04839); test: ROS production by membranes expressing human Nox2, cell-free Amplex Red assay; format: biochemical; details: cell-free membranes, Amplex Red; Cheng-Prusoff; average of at least three experiments in triplicate; read-out: Ki hNox2
T2 construct: host or cells: T-REx-CHO (hNOX2 T-REx-CHO), tetracycline-induced; membrane fraction
T2 sequence (P04839 2-570 limits assumed): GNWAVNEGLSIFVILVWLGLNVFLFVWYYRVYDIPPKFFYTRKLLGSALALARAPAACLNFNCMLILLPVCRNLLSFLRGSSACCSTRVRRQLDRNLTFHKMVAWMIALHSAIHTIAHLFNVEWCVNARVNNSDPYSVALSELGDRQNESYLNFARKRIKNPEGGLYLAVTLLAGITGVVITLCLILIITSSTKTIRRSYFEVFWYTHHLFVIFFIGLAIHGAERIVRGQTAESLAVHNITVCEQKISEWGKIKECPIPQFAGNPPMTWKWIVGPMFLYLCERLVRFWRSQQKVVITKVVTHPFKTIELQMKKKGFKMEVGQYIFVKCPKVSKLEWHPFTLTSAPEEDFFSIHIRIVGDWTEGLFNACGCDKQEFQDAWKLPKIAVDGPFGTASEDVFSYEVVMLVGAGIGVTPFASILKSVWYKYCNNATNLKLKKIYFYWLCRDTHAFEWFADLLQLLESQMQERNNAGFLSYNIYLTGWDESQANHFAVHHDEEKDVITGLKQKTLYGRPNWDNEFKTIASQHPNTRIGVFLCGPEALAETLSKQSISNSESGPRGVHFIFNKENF
T2 sequence (P13498 2-195 partner limits assumed): T1 sequence (P13498 2-195 partner limits assumed)
Text: as §1
Human Nox1 (NM_007052.4), human NOX2 (NM_000397), and human NOX5 (NM_0245052244) cDNAs were cloned into the pcDNA5/TO (Invitrogen). Human p22 (NM_000101.2) was cloned into pcDNA3.1/Zeo (+) (Invitrogen), and human NOXA1 (AY255769.1) and human NOXO1 (AB097667) were cloned into the bi-cistronic pVITRO1-neo-mcs plasmid (Invivogen).
Cells were transfected by using the FuGENE 6 method. Cells stably expressing functional human Nox1 (hNOX1 T-REx™-CHO) were obtained by co-transfecting T-REx™-CHO cells with human Nox1, human p22, human NOXA1 and human NOXO1. Cells stably expressing functional human Nox2 (hNOX2 T-REx™-CHO) were obtained by co-transfecting T-REx™-CHO cells with human nox2, human p22 and human cofactors. Cells stably expressing functional human Nox5 (hNOX5 T-REx™-CHO) were obtained by transfecting T-REx™-CHO cells with human Nox5. Co-transfected cells were selected with the appropriate antibiotics for 10 days. For the selection, hygromycin and G418 were used at 2 mg/ml and zeocin at 0.1 mg/ml. For the establishment of each stably transfected cell line, a pool of antibiotic-resistant cells was generated. Cells were cloned by limiting dilution. Several clones were established and investigated for ROS production upon tetracycline-induced hNox expression using a cellular AR assay. The expression of NOXes was done with tetracycline (1 μg/ml) during 24 h prior to the assay.
as §2, §3
Antagonist activity of compounds was measured in the presence of increasing concentrations ranging from 1 nM to 100 μM. […]

Compound | Ki (human Nox4) [nM] | Ki (human Nox2) [nM]
O=c1c2c(-c3cc(Cl)ccc3F)n(Cc3ccncc3)c(=O)cc2[nH]n1-c1ccccc1Cl [(12), 4-(5-chloro-2-fluorophenyl)-2-(2-chlorophenyl)-5-(pyridin-4-ylmethyl)-1H-pyrazolo[4,3-c]pyridine-3,6(2H,5H)-dione] | 79 | 
O=c1c2c(-c3cc(F)ccc3F)n(Cc3ccncc3)c(=O)cc2[nH]n1-c1ccccc1Cl [(35), 2-(2-chlorophenyl)-4-(2,5-difluorophenyl)-5-(pyridin-4-ylmethyl)-1H-pyrazolo[4,3-c]pyridine-3,6(2H,5H)-dione] | 119 | 665
O=c1c2c(-c3cccc(Cl)c3F)n(Cc3cccnc3)c(=O)cc2[nH]n1-c1ccccc1Cl [(38), 4-(3-chloro-2-fluorophenyl)-2-(2-chlorophenyl)-5-(pyridin-3-ylmethyl)-1H-pyrazolo[4,3-c]pyridine-3,6(2H,5H)-dione] | 129 | 
O=c1c2c(-c3ccccc3F)n(Cc3ccncc3)c(=O)cc2[nH]n1-c1ccccc1Cl [(29), 2-(2-chlorophenyl)-4-(2-fluorophenyl)-5-(pyridin-4-ylmethyl)-1H-pyrazolo[4,3-c]pyridine-3,6(2H,5H)-dione] | 111 | 655
O=c1c2c(-c3c(F)cccc3F)n(Cc3ccncc3)c(=O)cc2[nH]n1-c1ccccc1Cl [(28), 2-(2-chlorophenyl)-4-(2,6-difluorophenyl)-5-(pyridin-4-ylmethyl)-1H-pyrazolo[4,3-c]pyridine-3,6(2H,5H)-dione] | 109 | 
CN(C)c1cccc(-c2c3c(=O)n(-c4ccccc4Cl)[nH]c3cc(=O)n2Cc2ccn(C)n2)c1 [(43), 2-(2-chlorophenyl)-4-[3-(dimethylamino)phenyl]-5-[(1-methyl-1H-pyrazol-3-yl)methyl]-1H-pyrazolo[4,3-c]pyridine-3,6(2H,5H)-dione] | 126 | 
COc1cccc(-c2c3c(=O)n(-c4ccccc4OC)[nH]c3cc(=O)n2Cc2cccnc2)c1 [(24), 2-(2-methoxyphenyl)-4-(3-methoxyphenyl)-5-(pyridin-3-ylmethyl)-1H-pyrazolo[4,3-c]pyridine-3,6(2H,5H)-dione] | 99 | 
COc1ccc(F)c(-c2c3c(=O)n(-c4ccccc4OC)[nH]c3cc(=O)n2Cc2cnccn2)c1 [(41), 4-(2-fluoro-5-methoxyphenyl)-2-(2-methoxyphenyl)-5-(pyrazin-2-ylmethyl)-1H-pyrazolo[4,3-c]pyridine-3,6(2H,5H)-dione] | 148 | 
COc1ccc(-c2c3c(=O)n(-c4ccccc4OC)[nH]c3cc(=O)n2Cc2ccn(C)n2)cc1 [(23), 2-(2-methoxyphenyl)-4-(4-methoxyphenyl)-5-[(1-methyl-1H-pyrazol-3-yl)methyl]-1H-pyrazolo[4,3-c]pyridine-3,6(2H,5H)-dione] | 98 | 
COc1cccc(-c2c3c(=O)n(-c4ccccc4OC)[nH]c3cc(=O)n2Cc2ccn(C)n2)c1 [(20), 2-(2-methoxyphenyl)-4-(3-methoxyphenyl)-5-[(1-methyl-1H-pyrazol-3-yl)methyl]-1H-pyrazolo[4,3-c]pyridine-3,6(2H,5H)-dione] | 94 | 
COc1ccc(-c2c3c(=O)n(-c4ccccc4OC)[nH]c3cc(=O)n2Cc2cccnc2)cc1 [(33), 2-(2-methoxyphenyl)-4-(4-methoxyphenyl)-5-(pyridin-3-ylmethyl)-1H-pyrazolo[4,3-c]pyridine-3,6(2H,5H)-dione] | 115 | 
O=c1c2c(-c3c(F)cccc3F)n(Cc3cccnc3)c(=O)cc2[nH]n1-c1ccccc1Cl [(40), 2-(2-chlorophenyl)-4-(2,6-difluorophenyl)-5-(pyridin-3-ylmethyl)-1H-pyrazolo[4,3-c]pyridine-3,6(2H,5H)-dione] | 148 | 
O=c1c2c(-c3cccc(Cl)c3F)n(Cc3ccncc3)c(=O)cc2[nH]n1-c1ccccc1Cl [(31), 4-(3-chloro-2-fluorophenyl)-2-(2-chlorophenyl)-5-(pyridin-4-ylmethyl)-1H-pyrazolo[4,3-c]pyridine-3,6(2H,5H)-dione] | 112 | 
